Here are results for 92 compounds from a melting point compilation (Tetko et al.; mined from patent text by program, amines drawn as free bases though some values may be those of a salt).

For orientation: melting point means the temperature of the solid-liquid transition. `CN(C)c1ccc(/C=C/c2ccccc2F)c2ccccc12` had a melting point of 56 to 58 °C.
As for `COc1ccc(-c2[nH]nc3c2C(=O)c2c(NC(=O)CCl)cccc2-3)cc1`, the melting point came out at 274 °C.
`O=C(c1ccccc1)N1CCn2c(CN3CCCCC3)ccc2C1` yielded a melting point of 95 to 96 °C.
`O=c1c(Cl)c(Cl)cnn1-c1ccc([N+](=O)[O-])cc1` returned a melting point of 221 °C.
Compound `O=C(Nc1ccc([N+](=O)[O-])cc1)c1ccc(Nc2ccncc2)cc1` showed a melting point of 298 to 302 °C.
As for `O=C(O)c1cccc(-c2ccc3c(c2)N(Cc2cc(Cl)cc(Cl)c2)CC3)c1`, the melting point fell in the range of 207 to 208 °C.
For `O=C(O)c1cc2sccc2cn1`, the melting point was 212 °C.
Compound `CC=NN(C(=O)c1ccc(Cl)cc1)c1ccc2c(c1)OCO2` displayed a melting point of 140 to 142 °C.
The figure for `COc1cc(C(=O)N2CCC(CCN3CCC(O)(c4nc5ccccc5n4Cc4ccc(F)cc4)CC3)(c3ccc(Cl)c(Cl)c3)C2)cc(OC)c1OC` (configuration not stated) is 130 to 150 °C.
For `Fc1ccc2[nH]cc(Cc3ccncc3)c2c1` the value was 141 to 142 °C; for `CN(C=O)CC1(N(C)C)CCCCC1`, 59 to 60 °C; for `CN1Cc2c(-c3nnc(CCl)o3)ncn2-c2cccc(Cl)c2C1=O`, 201 to 203 °C.
The compound `NC(=O)NC(=O)c1nc(Cl)c(Cl)[nH]1` yielded a melting point greater than 290 °C.
For `COC(=O)C1=C(C)NC(C)=C(C(=O)OCCCCl)C1c1cccc([N+](=O)[O-])c1` (configuration not stated) the value was 125 to 130 °C; for `CCN(CC)C(=O)n1cc(C(F)F)c(S(=O)(=O)c2cccc(Cl)c2)n1`, 86 to 88 °C; for `CCCc1ccc(OCc2ccc(OCc3nc(-c4ccccc4)oc3C)cc2)cc1OCC(=O)O`, 162 to 163 °C.
For `Cc1cc(-c2cc(C(F)(F)F)nn2-c2ccc(S(N)(=O)=O)cc2)ccc1-c1cocn1` the value was 112 to 114 °C; for `CCOc1csc(NC(C)=O)c1C#N`, 242 to 243 °C; for `Cc1sc(C(N)=O)c2c1-c1nn(Cc3ccccc3)cc1CC2`, 182 to 183 °C.
For `CCC1=NC(NC(=O)Nc2cccc(C)c2)C(=O)N(CC(=O)C2CCCCC2)c2c(C)cccc21` (configuration not stated) the value was 161 to 164 °C; for `Cn1c(C(F)(F)F)cc(=O)n(-c2cc(F)c([N+](=O)[O-])cc2F)c1=O`, 150 °C; for `CC(N)C(O)(c1ccccc1)c1ccccc1` (configuration not stated), 44 to 45 °C.
With `CCOCc1nc2c(N)nc(C)c(C)c2n1NC1CCCCC1`, the melting point fell in the range of 108 to 110 °C.
Take `CCCc1c(OCc2cccc(C(=O)O)c2)ccc(C(C)=O)c1O`: the melting point is 216 to 220 °C.
The compound `NS(=O)(=O)c1ccc(-c2cnn(Cc3ccc(F)cc3F)c(=O)c2-c2ccc(F)cc2)cc1` registered a melting point of 236 to 238 °C.
With `CC(C)n1nc(-c2sc(NC(=O)C3CC3)nc2-c2ccc(F)cc2)ccc1=O`, the melting point was in the range of 250 to 252 °C.
Compound `CCCOCC1(C)CCCOc2cc(/C=C/c3ccc(C(=O)O)cc3)ccc21` (configuration not stated) returned a melting point of 164 to 165 °C.
Compound `O=C(O)c1ccc(COc2ccc3cc(-c4ccc(-c5ccccc5)n4Cc4ccc(C(F)(F)F)cc4)ccc3c2)cc1` showed a melting point of 228 to 229 °C.
In the case of `CCOC(=O)c1cc2cc(OCCOC)cc(N)c2[nH]1`, the melting point was in the range of 162 to 163 °C.
Consider `Cc1cccc(NC(=O)Nc2ccc(-c3c(C(N)=O)[nH]c4ccccc34)cc2)c1`, for which the melting point lay within 140 to 142 °C.
`CC(C)C(=O)c1cccc([N+](=O)[O-])c1` showed a melting point of 33 to 35 °C.
`CNC(=O)Cc1ccccc1O` registered a melting point of 105 to 106 °C.
As to `CSc1nc(O)nn1C`, the melting point was in the range of 128 to 130 °C.
On to `S=C1C[C@@H](SCc2ccccc2)CN1`, for which the melting point was in the range of 86 to 88 °C.
`COC(=O)C=Cc1ccc2ccccc2n1` yielded a melting point of 85 to 86 °C.
Compound `COc1ccc2c(c1F)C(=O)OC2=O` returned a melting point of 128 to 130 °C.
For `CCN1CCc2ccc(C(=O)CCC(=O)N3CCC(c4ccc(Cl)cc4)CC3)cc2C1` the value was 115 to 116 °C; for `CN1CC(CCN2CCN(c3ccc(Cl)cc3)CC2)OC1=O` (configuration not stated), 113 to 114 °C.
For `Cc1c(Cl)cc(C2=NNC(=O)CC2O)cc1Cl` (configuration not stated), the melting point lay in the range of 253 to 256 °C.
As to `CS(=O)(=O)C(=C1CN(C(c2ccccc2)c2ccccc2)C1)c1ccc(O)cc1`, the melting point stood at 211 °C.
As for `NC1CCN(c2c(F)c(F)c3c(=O)c(C(=O)O)cn(C4CC4)c3c2F)C1` (configuration not stated), the melting point lay within 290 to 292 °C.
Consider `CCCCOC(C=Cc1ccc(C(=O)O)cc1)c1ccc2c(c1)C(C)(C)CCC2(C)C` (racemic), for which the melting point fell in the range of 78 to 80 °C.
Consider `Cn1ncnc1COc1nn2c(-c3ccccc3F)nnc2cc1C(F)(F)F`, for which the melting point fell in the range of 123 to 126 °C.
In turn, `Nc1sc2c(c1C(=O)c1ccc(Cl)cc1)CCN(CCc1ccccc1)C2` gave a melting point of 148 to 150 °C.
For `CCCC(CNc1cc(Cl)ccc1C(=O)O)C(=O)O` (configuration not stated), the melting point stood at 206 °C.
With `COc1cc2c(cc1Cl)C(c1ccccc1Cl)C(=O)N2` (configuration not stated), the melting point lay in the range of 243 to 247 °C.
`CCOC(=O)c1c(C(F)(F)F)nc(C(F)(F)Cl)c(C(=O)OC)c1N(CC)CC` showed a melting point of 31.5 to 33 °C.
`Cc1ccc(CN2CCN(CCCOc3ccc4[nH]c(=O)cc(C)c4c3)CC2)cc1` yielded a melting point of 162 to 163 °C.
Regarding `O=C(Nc1cc(C(F)(F)F)cc(C(F)(F)F)c1)c1cnc(Cl)nc1Cl`, the melting point was in the range of 104 to 105 °C.
As to `O=C(O)c1ccccc1C(=O)Nc1ccc2c(=O)n3c(nc2c1)C(=Cc1ccccc1)CC3`, the melting point was greater than 300 °C.
As to `CCOC(=O)Cc1nc(-c2ccc(F)cc2)oc1-c1ccco1`, the melting point lay within 110 to 111 °C.
For `COC(=O)CCCC#CCn1c(-c2ccccc2)c(-c2ccccc2)n(-c2ccccc2)c1=O`, the melting point fell in the range of 133 to 134 °C.
For `Cc1cc(I)ccc1Nc1c(C(=O)O)cc(F)c(F)c1F` the value was 206 to 210 °C; for `O=C(O)c1ccc2c(c1)Cc1ccccc1CO2`, 240 to 244 °C.
`CCCCCCCCCCCC(=O)OC1C(C)C(c2ccccc2)N(O)C(c2ccccc2)C1C` (configuration not stated) showed a melting point of 108 to 112 °C.
In turn, `CSc1ncc(CN)c(NC2CCCC2)n1` registered a melting point of 58 to 60 °C.
`COc1cc(-c2ccc([N+](=O)[O-])cn2)cc(OC)c1OC` came in with a melting point of 134 to 136 °C.
As to `Clc1cnn2c(-c3ccncc3)ccnc12`, the melting point lay within 183 to 184 °C.
For `Cc1ccc(N(C)c2ccco2)cc1O` the value was 127 to 128 °C.
The figure for `O=S1(=O)NCN(CCF)c2cc(F)ccc21` is 107 to 109 °C; for `Cc1ccc(-c2cnc(-c3ccc(C(F)(F)F)cc3)s2)s1` it is 150 to 152 °C.
For `COc1nc(C(F)(F)F)cc(=O)n1-c1cc(OC(C)C)c(Cl)cc1F`, the melting point lay within 117 to 119 °C.
As for `COc1ccc2c(c1)C=C(CN1CCC3(CC1)C(=O)NCN3c1ccccc1)CC2`, the melting point lay within 184 to 186 °C.
The figure for `CC(=O)c1cc(O)cc2cc(-c3ccc(O)cc3)oc12` is 274 to 276 °C.
Take `CCC1c2c([nH]c(=O)c(O)cc2=O)CC(Cl)C1Cl` (configuration not stated): the melting point is 197 °C.
As for `O=C(CCCCOCc1ccccc1)c1ccc([N+](=O)[O-])cc1`, the melting point was found to be 75 °C.
`CCc1noc(=O)n1C(=O)NC` registered a melting point of 82 °C.
The compound `Brc1ccc2nc(Br)nn2c1` displayed a melting point of 201 °C.
For `CCOC(=O)c1c(C#N)nn(-c2c(Cl)cc(C(F)(F)F)cc2Cl)c1N`, the melting point was found to be 202 °C.
The figure for `CC(C)n1nc(-c2cc(C(=O)O)cnc2-c2ccccc2)ccc1=O` is 221 to 223 °C.
`C=CCNC(=O)NC(CCC)(CCC)CCC`: the melting point turned out to be 66 °C.
The compound `COc1ccc(CCOCCCCCCNCC(O)c2ccc(O)c(CCO)c2)cc1` (configuration not stated) registered a melting point of 84 to 85 °C.
Compound `CCN(CC)Cc1ccccc1Oc1ccc(-c2cn(C3CCOC3)c3ncnc(N)c23)cc1` (configuration not stated) displayed a melting point of 107 to 110 °C.
As for `CC(=O)NCC(=NNC(N)=S)c1ccccc1`, the melting point fell in the range of 208 to 211 °C.
`O=C1Nc2ccc(Cl)cc2C(c2ccccc2)=N[C@@H]1Cc1ccccc1` displayed a melting point of 154 to 157 °C.
`CCOC(C#CCN1CCC(NC(=O)c2ccccc2)CC1)OCC` displayed a melting point of 130 °C.
For `NNC(=O)C(F)(F)C(F)(F)C(F)(F)F` the value was 138 to 142 °C; for `COc1ccc(N2CCN(c3ccc(C)cc3)CC2)c(-c2ccc(N(C)C)cc2)n1`, 170 to 173 °C.
In the case of `CCC(=O)Nc1ccnn1-c1c(Cl)cc(C(F)(F)F)cc1Cl`, the melting point came out at 125 °C.
Regarding `O=C(O)C1=Cc2cc(Cl)cc(Cl)c2SC1C(F)(F)F` (configuration not stated), the melting point lay in the range of 218 to 220 °C.
The figure for `COc1nc(C)c2c(c1C=O)CCCC2O` (configuration not stated) is 107 °C; for `C=CCNC(=S)C(CN1CCOCC1)c1ccccn1` (configuration not stated) it is 84 to 86 °C; for `Cc1c(Cl)cccc1S(=O)(=O)Nc1ccc2nc(C)n(C)c2c1` it is 265 to 266 °C.
On to `CCOc1nc(OCC)c2cscc2n1`, for which the melting point was in the range of 84 to 86 °C.
For the compound `C[C@H](NC(=O)c1c(CN2CCNCC2)c(-c2ccccc2)nc2ccccc12)C1CCCCC1`, the melting point was 116 to 118 °C.
`N#Cc1ccc(N2C(=O)NC3(CCSCC3)C2=O)cc1C(F)(F)F` came in with a melting point of 209 to 210 °C.
In the case of `CCOC(=O)CCCCOc1ccc(OCC)cc1C=O`, the melting point was 80 to 81 °C.
`CNC(=O)c1ccc(N2CCN(Cc3cnc4c(c3)[nH]c(=O)n3cccc43)CC2)c(Cl)c1`: the melting point was 260 to 266 °C.
With `CC(C)Nc1nc(N)c(C(=O)N=CNNS(=O)(=O)N(C)C)nc1Cl`, the melting point amounted to 172 °C.
As to `COc1cc(-c2cc(=O)c3ccccc3o2)cc([N+](=O)[O-])c1OC`, the melting point lay in the range of 216 to 217 °C.
Take `CN1CCN(c2ccccc2C=C2SCCN(c3ccc(Cl)c(Cl)c3)C2=O)CC1`: the melting point is 155 to 157 °C.
`O=C(OCCN1CCN(c2cccc(C(F)(F)F)c2)CC1)c1cc(F)ccc1Nc1ccnc2cc(Cl)ccc12` returned a melting point of 113 °C.
